Legend:
Smn protein [1] = test: Smn protein assay in tissues of adult C/C-allele SMA mice; type: in vivo; conditions: 10 mg/kg BID orally for 10 days, brain, spinal cord, muscle and liver, relative to vehicle group, FIG. 11
Method: This Smn protein assay compares tissues from test compound treated mice with those from DMSO vehicle treated mice to determine the increase in levels of Smn protein produced from the human SMN2 gene.
(§1) The tissue samples in Safe-Lock tubes are weighed and the volume of RIPA buffer containing the protease inhibitor cocktail is added based on the weight to volume ratios for each type of tissue: Brain (50 mgmL), Muscle (50 mgmL) and Spinal Cord (25 mgmL).
(§2) Tissues are homogenized using the TissueLyzer by bead milling. 5 mm stainless steel beads are added to the sample and shaken vigorously for 5 minutes at 30 Hz in the TissueLyzer. […] Fluorescence for each well of the plate at 665 nm and 620 nm is measured on an EnVision multilabel plate reader (Perkin-Elmer). The total protein in the tissue homogenate is measured using the BCA assay according to the manufacturer's protocol.
(§3) The normalized fluorescence signal is calculated for each sample, Blank and vehicle control well by dividing the signal at 665 nm by the signal at 620 nm. Normalizing the signal accounts for possible fluorescence quenching due to the matrix effect of the tissue homogenate. […] The ΔF value for each tissue sample well is divided by the total protein quantity (determined using the BCA assay) for that tissue sample. […]

Smn protein [2] = test: Smn protein levels in tissues of Δ7 SMA mice of the survival study; type: in vivo; conditions: Compound 65 until PND 144, Compound 69 until PND 80 and PND 83, relative to vehicle treated and age-matched heterozygous mice, FIG. 16
Method: as §1
as §2, with “TissueLyzer. The samples are then centrifuged for 20 minutes at 14,000×g in a microcentrifuge and the homogenates transferred to the PCR plate. The homogenates are diluted in RIPA buffer to approximately 1 mgmL for HTRF and approximately 0.5 mgmL for total protein measurement using the BCA protein assay.” for “TissueLyzer.”
as §3

Compound	total protein normalized Smn level in tissues (Smn protein [1])	Smn protein expression in brain and muscle tissues (Smn protein [2])
Cc1cn2cc(-c3cc4ccc(N5CCN6CCC[C@H]6C5)cc4c(=O)o3)nc2c(C)n1 [Cpd 69, 3-(6,8-dimethylimidazo[1,2-a]pyrazin-2-yl)-7-[(8aS)-hexahydropyrrolo[1,2-a]pyrazin-2(1H)-yl]-1H-isochromen-1-one]	increased in brain, spinal cord, muscle and liver tissues	increased Smn protein expression in brain and muscle tissues
Cc1cn2cc(-c3cc4ccc(N5CCN(C)CC5)cc4c(=O)o3)nc2c(C)n1 [Cpd 65, 3-(6,8-dimethylimidazo[1,2-a]pyrazin-2-yl)-7-(4-methylpiperazin-1-yl)-1H-isochromen-1-one]	increased in brain, spinal cord, muscle and liver tissues	increased Smn protein expression in brain and muscle tissues

Reference: patent US9399649B2, “Compounds for treating spinal muscular atrophy” (PTC Therapeutics Inc., priority 2012, dated 2016)
